Assays:
[1] = test system: complement serum (guinea pig complement); assay: Anticomplementary activity (inhibition of hemolysis of sensitized erythrocytes); format: biochemical; details: 50% hemolysis inhibition, 37° C.
Protocol: The anticomplementary activity of the test compound was measured according to the test method as described in Experimental Immunochemistry, edited by E. A. Kabat and M. M. Mayer, 2nd ed., Springfield, III: C. C. Thomas (1961) pages 133-240.
A mixture of 1 ml of a 5-fold diluted solution of a Veronal buffer solution containing 1.5×10^-4 M Ca^2+ and 5×10^-4 M Mg^2+ and isotonic gelatin, 1.5 ml of complement serum (guinea pig complement) diluted 400 times with a physiological saline solution and 0.05 ml of a solution of a test compound (in this case, a test compound was dissolved in a physiological saline solution) was incubated at 37° C. for 30 minutes. To the said mixture there was added 0.4 ml of sensitized erythrocytes suspension containing 5×10^8 cells/ml and said mixture was incubated at 37° C. further for 60 minutes. After the incubation, the mixture was centrifuged in 3,000 rpm at 4° C. for 10 minutes.
The results are expressed in Table 1 as the concentration of each drugs inhibiting the hemolysis activity by 50% (IC50).

[2] = test system: nephrotoxin-type nephritis; assay: Therapeutic effect on nephrotoxin-type nephritis (modified type of Masugi nephritis), proteinuria level; format: in vivo; details: rats
Protocol: (i) Preparation of anti-rat kidney rabbit serum.
The kidneys of SD male rats weighing about 250-300 g were sufficiently perfused with 0.9% saline. The renal cortical tissue was homogenized with 0.9% saline using a Teflon homogenizer. 4 ml of the homogenate was then suspended into the same volume of Freund's complete adjuvant. 2 ml of the said mixture was given subcutaneously to male rabbits weighing about 3 kg. 4 weeks later, 2 ml of the mixture was given intramuscularly as a booster. At the 5th week, a blood sample was taken. The serum separated by centrifugation at 3,000 rpm for 30 minutes was inactivated by heating at 56° C. for 30 minutes and preserved by freezing until just before use.
(ii) Induction of experimental nephritis (modified type of Masugi nephritis)
Experimental nephritis was induced in groups of 5 male rats weighing about 150-200 g by a single intravenous injection of 1 ml of the anti-kidney serum obtained in the above procedures.
(iii) Evaluation of anti-nephritic effect of drugs.
Drugs were given to a group of 5 rats once a day for 5 consecutive days from the 2nd day before the injection of anti-kidney serum. Each drug was dissolved into 3% sodium bicarbonate solution and given intraperitoneally in a volume of 1 ml/rat. In addition to the above drug-treated nephritic group, the non-treated-nephritic group (control) was set in the experiment. The proteinuria level (total) amount excreted into the urine over a 12 hour period) was measured using turbidometry employing bovine serum albumin as a control by means of sulfosalicylic acid.

[3] = test system: blood clot (fresh rabbit blood, urokinase, bovine thrombin); assay: Fibrinolytic activity (modified diluted whole blood clot lysis time method); format: biochemical; details: 50 μl of test compound (300 μg/ml), 37° C.
Protocol: The enhancement of the fibrinolytic activity of the test compounds was measured according to the modified diluted whole blood clot lysis time method described in
G. R. Fearnley, G. V. Balmforth, E. Fearnley: Clin. Sci. 16, 645-650 (1957)
I. S. Chohan et al: Thrombos. Diathes. Haemorrh. 33, 226 (1975) and
I. M. Nilsson et al: Handbook of Experimental Pharmacology 46, 110
Fresh rabbit blood was diluted 20 times with 1/15 M phosphate buffer (pH 7.4). A mixture of 400 μl of the diluted blood solution and 50 μl of a test compound (300 μg/ml) was incubated at 37° C. for 30 minutes. To the mixture were added 50 μl of urokinase solution (100 IU/ml) and 50 μl of bovine thrombin (100 N.I.H. u/ml). The clot produced in tubes was incubated at 37° C. for various periods of time. At the end of each incubation interval (15 minutes interval), 2.5 ml of distilled water was added to lyse erythrocytes released from clotted blood and absorbance (OD541) of the supernatant separated by centrifugation (3,000 rpm for 10 minutes) from the reaction mixture was measured. The fibrinolytic activity of the test compound was determined by the time in minutes needed for the complete lysis of the blood clot.
In the absence of a test compound, it took more than 2 hours to lyse blood clot in the above condition. However, blood clot was lysed in the presence of test compounds after 15 minutes (symbol: ++) and 45 minutes (symbol: +) incubation, respectively. Samples which were incapable of lysing blood clot within 1 hour incubation were expressed as symbol (-).

[4] = 10 mg/kg intraperitoneally once a day for 5 days
[5] = 30 mg/kg intraperitoneally once a day for 5 days

Compound | Anticomplementary Activity (IC50) [1] [µg/mL] | protein uria level, 1st day [2, 4] [mg/12 hours] | protein uria level, 4th day [2, 4] [mg/12 hours] | protein uria level, 7th day [2, 4] [mg/12 hours] | protein uria level, 1st day [2, 5] [mg/12 hours] | protein uria level, 4th day [2, 5] [mg/12 hours] | protein uria level, 7th day [2, 5] [mg/12 hours] | Fibrinolytic Activity (time needed for complete lysis of the blood clot) [3]
CCCCCCCCCCCCCCCC(=O)OC(CCCCCCCCCCCCCCC)CC(=O)NCC(=O)N[C@@H](CO)C(=O)O (stereo partly drawn) [Example 2, N-[N-(3-hexadecanoyloxyoctadecanoyl)glycyl]-L-serine] | 0.03 to 0.04 | 5.9 | 3.7 | 39.6 | 3.5 | 5.5 | 16.5 | –
CC(C)CCCCCCCCCCCC(=O)OC(CCCCCCCCCCCC(C)C)CC(=O)NCC(=O)O (stereo not drawn) [Example 19, N-[15-methyl-3-(13-methyltetradecanoyloxy)hexadecanoyl]glycine] | 4.0 | – | – | – | – | – | – | + (45 minutes (symbol: +) incubation)

Reference: patent publication US4436726A, “N-Acylpeptide compound, processes for the preparation thereof and the pharmaceutical compositions” (Fujisawa Pharmaceutical Co., Ltd., priority 1980, dated 1984)
